Consider 16 compounds from patent publication US20240190880A1 (THE REGENTS OF THE UNIVERSITY OF MICHIGAN, priority 2021, published 2024).

By DC50 is commonly meant the concentration giving 50% degradation.

Each structure is given as a SMILES string.

The first test deals with T1, ER (Homo sapiens, UniProt P03372).
T1 construct: host or cells: T47D and MCF7 human breast cancer cells
T1 sequence (P03372 1-595): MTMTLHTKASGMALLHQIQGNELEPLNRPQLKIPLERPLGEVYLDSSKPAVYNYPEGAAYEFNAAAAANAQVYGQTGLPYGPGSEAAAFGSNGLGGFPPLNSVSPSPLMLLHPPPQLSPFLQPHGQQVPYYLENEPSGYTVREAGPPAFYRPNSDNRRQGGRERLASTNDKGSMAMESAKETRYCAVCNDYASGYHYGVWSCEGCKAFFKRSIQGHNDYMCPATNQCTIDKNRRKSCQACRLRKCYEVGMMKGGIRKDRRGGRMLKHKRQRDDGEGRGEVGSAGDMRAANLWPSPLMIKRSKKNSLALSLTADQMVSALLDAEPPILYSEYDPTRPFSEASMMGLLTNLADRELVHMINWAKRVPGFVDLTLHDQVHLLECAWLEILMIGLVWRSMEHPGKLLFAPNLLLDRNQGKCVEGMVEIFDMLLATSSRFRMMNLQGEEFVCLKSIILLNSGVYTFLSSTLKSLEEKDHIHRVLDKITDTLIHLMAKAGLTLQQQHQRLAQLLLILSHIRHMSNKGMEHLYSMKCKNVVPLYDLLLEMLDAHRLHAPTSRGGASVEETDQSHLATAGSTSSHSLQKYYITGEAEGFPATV
Put plainly: ER degradation activity, in-cell western blot analysis in T47D cells. It counts as cell-based. To be noted: 16 hours, Table A does not say which cell line (T47D or MCF7), read-out: Potency (DC50). In a few lines: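 T47D cells cultured in DMEM with 10% FBS, treated with compounds (final 0.5% DMSO) for 16 h. ER level measured by in-cell western with anti-rabbit-680/anti-mouse-800 near-infrared detection. Relative ER percentage calculated against untreated and DMSO-treated wells set as 100%.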
On to `C[C@@H]1Cc2c([nH]c3ccccc23)[C@@H](c2c(F)cc(C3CCC(C(=O)N4CCC(N5Cc6cc7c(cc6C5)C(=O)N(C5CCC(=O)NC5=O)C7)CC4)CC3)cc2F)N1CC(F)F` (stereo partly drawn) [E 307, 3-(6-(1-(4-(4-((1R,3R)-2-(2,2-difluoroethyl)-3-methyl-2,3,4,9-tetrahydro-1H-pyrido[3,4-b]indol-1-yl)-3,5-difluorophenyl)cyclohexane-1-carbonyl)piperidin-4-yl)-1-oxo-3,5,6,7-tetrahydropyrrolo[3,4-f]isoindol-2(1H)-yl)piperidine-2,6-dione], for which the half-maximal degradation concentration (DC50) was below 0.01 µM. The same measure, in the same setting: then `O=C1CCC(N2C(=O)c3cc4c(cc3C2=O)CN(CC(=O)N2CC3(CCN(c5ccc([C@@H]6c7ccc(O)cc7CC[C@@H]6c6ccc(F)cc6)cc5)CC3)C2)C4)C(=O)N1` (mixture of isomers) [E 19, Rac-2-(2,6-dioxopiperidin-3-yl)-6-(2-(7-(4-((1R,2S)-2-(4-fluorophenyl)-6-hydroxy-1,2,3,4-tetrahydronaphthalen-1-yl)phenyl)-2,7-diazaspiro[3.5]nonan-2-yl)-2-oxoethyl)-6,7-dihydropyrrolo[3,4-f]isoindole-1,3(2H,5H)-dione], with below 0.01 µM. Same read-out and setting: next, `C[C@@H]1Cc2c([nH]c3ccccc23)[C@@H](c2cnc(N3CCC4(CC3)CN(C(=O)CN3Cc5cc6c(cc5C3)C(=O)N(C3CCC(=O)NC3=O)C6=O)C4)nc2)N1CC(F)F` (stereo partly drawn) [E 259, 6-(2-(7-(5-((1R,3R)-2-(2,2-difluoroethyl)-3-methyl-2,3,4,9-tetrahydro-1H-pyrido[3,4-b]indol-1-yl)pyrimidin-2-yl)-2,7-diazaspiro[3.5]nonan-2-yl)-2-oxoethyl)-2-(2,6-dioxopiperidin-3-yl)-6,7-dihydropyrrolo[3,4-f]isoindole-1,3(2H,5H)-dione]: below 0.01 µM; `CCC(=C(c1ccc(O)cc1)c1ccc(N2CCC3(CCN(C(=O)CN4Cc5cc6c(cc5C4)C(=O)N(C4CCC(=O)NC4=O)C6=O)CC3)C2)cc1)c1ccccc1` (stereo not shown) [E 189, 2-(2,6-dioxopiperidin-3-yl)-6-(2-(2-(4-(1-(4-hydroxyphenyl)-2-phenylbut-1-en-1-yl)phenyl)-2,8-diazaspiro[4.5]decan-8-yl)-2-oxoethyl)-6,7-dihydropyrrolo[3,4-f]isoindole-1,3(2H,5H)-dione]: 0.01 to 0.1 µM; `C[C@@H]1Cc2c([nH]c3ccccc23)[C@@H](c2c(F)cc(N3CCC(CN4CC(N5Cc6cc7c(cc6C5)C(=O)N(C5CCC(=O)NC5=O)C7)C4)CC3)cc2F)N1CC(F)F` (stereo partly drawn) [E 52, 3-(6-(1-((1-(4-((1R,3R)-2-(2,2-difluoroethyl)-3-methyl-2,3,4,9-tetrahydro-1H-pyrido[3,4-b]indol-1-yl)-3,5-difluorophenyl)piperidin-4-yl)methyl)azetidin-3-yl)-1-oxo-3,5,6,7-tetrahydropyrrolo[3,4-f]isoindol-2(1H)-yl)piperidine-2,6-dione]: below 0.01 µM. Still for that read-out and setting: then `C[C@@H]1Cc2c([nH]c3ccccc23)[C@@H](c2c(F)cc(C3CCC(CN4CC(CN5Cc6cc7c(cc6C5)C(=O)N(C5CCC(=O)NC5=O)C7=O)C4)CC3)cc2F)N1CC(F)F` (stereo partly drawn) [E 283, 6-((1-((4-(4-((1R,3R)-2-(2,2-difluoroethyl)-3-methyl-2,3,4,9-tetrahydro-1H-pyrido[3,4-b]indol-1-yl)-3,5-difluorophenyl)cyclohexyl)methyl)azetidin-3-yl)methyl)-2-(2,6-dioxopiperidin-3-yl)-6,7-dihydropyrrolo[3,4-f]isoindole-1,3(2H,5H)-dione], with above 0.1 µM. In the case of `O=C1CCC(N2C(=O)c3cc4c(cc3C2=O)CN(CC2CCN(C(=O)C3CCN(c5ccc([C@@H]6c7ccc(O)cc7CC[C@@H]6c6ccccc6)cc5)CC3)CC2)C4)C(=O)N1` (stereo partly drawn) [E 204, 2-(2,6-dioxopiperidin-3-yl)-6-((1-(1-(4-((1R,2S)-6-hydroxy-2-phenyl-1,2,3,4-tetrahydronaphthalen-1-yl)phenyl)piperidine-4-carbonyl)piperidin-4-yl)methyl)-6,7-dihydropyrrolo[3,4-f]isoindole-1,3(2H,5H)-dione], the 50% degradation concentration (DC50) lay within 0.01 to 0.1 µM. Same read-out and setting: then `C[C@@H]1Cc2cc(O)ccc2[C@@H](c2c(F)cc(N3CC4(CCN(CC(=O)N5Cc6cc7c(cc6C5)C(=O)N(C5CCC(=O)NC5=O)C7)C4)C3)cc2F)N1CC(F)F` (stereo partly drawn) [E 40, 3-(6-(2-(2-(4-((1S,3R)-2-(2,2-difluoroethyl)-6-hydroxy-3-methyl-1,2,3,4-tetrahydroisoquinolin-1-yl)-3,5-difluorophenyl)-2,6-diazaspiro[3.4]octan-6-yl)acetyl)-1-oxo-3,5,6,7-tetrahydropyrrolo[3,4-f]isoindol-2(1H)-yl)piperidine-2,6-dione], with below 0.01 µM; and `C[C@@H]1Cc2cc(O)ccc2[C@@H](c2c(F)cc(N3CCC4(CCN(CC(=O)N5Cc6cc7c(cc6C5)C(=O)N(C5CCC(=O)NC5=O)C7=O)C4)C3)cc2F)N1CC(C)(F)F` (stereo partly drawn) [E 31, 6-(2-(7-(4-((1S,3R)-2-(2,2-difluoropropyl)-6-hydroxy-3-methyl-1,2,3,4-tetrahydroisoquinolin-1-yl)-3,5-difluorophenyl)-2,7-diazaspiro[4.4]nonan-2-yl)acetyl)-2-(2,6-dioxopiperidin-3-yl)-6,7-dihydropyrrolo[3,4-f]isoindole-1,3(2H,5H)-dione], with above 0.1 µM; and `O=C1CCC(N2C(=O)c3cc4c(cc3C2=O)CN(CC2CCC(N3CCN(c5ccc([C@@H]6c7ccc(O)cc7CC[C@@H]6c6ccccc6)cc5)CC3)CC2)C4)C(=O)N1` (stereo partly drawn) [E 299, 2-(2,6-dioxopiperidin-3-yl)-6-((4-(4-(4-((1R,2S)-6-hydroxy-2-phenyl-1,2,3,4-tetrahydronaphthalen-1-yl)phenyl)piperazin-1-yl)cyclohexyl)methyl)-6,7-dihydropyrrolo[3,4-f]isoindole-1,3(2H,5H)-dione], with 0.01 to 0.1 µM.

Take `CCC(=C(c1ccc(O)cc1)c1ccc(N2CCC3(CCN(CC(=O)N4Cc5cc6c(cc5C4)C(=O)N(C4CCC(=O)NC4=O)C6=O)CC3)C2)cc1)c1ccccc1` (stereo not shown) [E 192, 2-(2,6-dioxopiperidin-3-yl)-6-(2-(2-(4-(1-(4-hydroxyphenyl)-2-phenylbut-1-en-1-yl)phenyl)-2,8-diazaspiro[4.5]decan-8-yl)acetyl)-6,7-dihydropyrrolo[3,4-f]isoindole-1,3(2H,5H)-dione]: the half-maximal degradation concentration (DC50) was in the range of 0.01 to 0.1 µM. Still for that read-out and setting: next, `O=C1CCC(N2C(=O)c3cc4c(cc3C2=O)CN(C2CCC(C(=O)N3CC(Oc5ccc([C@H]6c7ccc(O)cc7CC[C@H]6c6ccccc6)cc5)C3)CC2)C4)C(=O)N1` (stereo partly drawn) [E 384, 2-(2,6-dioxopiperidin-3-yl)-6-((1R,4s)-4-(3-(4-((1S,2R)-6-hydroxy-2-phenyl-1,2,3,4-tetrahydronaphthalen-1-yl)phenoxy)azetidine-1-carbonyl)cyclohexyl)-6,7-dihydropyrrolo[3,4-f]isoindole-1,3(2H,5H)-dione]: 0.01 to 0.1 µM.

The test is the same for the next values; noted with them: compounds 16 hours, Table A does not say whether T47D or MCF7, read-out: Potency (DC50).
Turning to `C[C@@H]1Cc2c([nH]c3ccccc23)[C@@H](c2cnc(N3CCC4(CC3)CC(CN3Cc5cc6c(cc5C3)C(=O)N([C@H]3CCC(=O)NC3=O)C6=O)C4)nc2)N1CC(F)(F)CO` [E 512, 6-((7-(5-((1R,3R)-2-(2,2-difluoro-3-hydroxypropyl)-3-methyl-2,3,4,9-tetrahydro-1H-pyrido[3,4-b]indol-1-yl)pyrimidin-2-yl)-7-azaspiro[3.5]nonan-2-yl)methyl)-2-((S)-2,6-dioxopiperidin-3-yl)-6,7-dihydropyrrolo[3,4-f]isoindole-1,3(2H,5H)-dione], the half-maximal degradation concentration (DC50) is above 0.1 µM. Still for that read-out and setting: next, `C[C@@H]1Cc2c([nH]c3ccccc23)[C@@H](c2c(F)cc(C3CCC4(CC3)CCN(C(=O)CN3Cc5cc6c(cc5C3)C(=O)N(C3CCC(=O)NC3=O)C6=O)CC4)cc2F)N1CC(F)F` (stereo partly drawn) [E 480, 6-(2-(9-(4-((1R,3R)-2-(2,2-difluoroethyl)-3-methyl-2,3,4,9-tetrahydro-1H-pyrido[3,4-b]indol-1-yl)-3,5-difluorophenyl)-3-azaspiro[5.5]undecan-3-yl)-2-oxoethyl)-2-(2,6-dioxopiperidin-3-yl)-6,7-dihydropyrrolo[3,4-f]isoindole-1,3(2H,5H)-dione]: 0.01 to 0.1 µM; `C[C@@H]1Cc2c([nH]c3ccccc23)[C@@H](c2cnc(N3CCC4(CC3)CC(CN3Cc5cc6c(cc5C3)C(=O)N(C3CCC(=O)NC3=O)C6=O)C4)nc2)N1CC(C)(C)F` (stereo partly drawn) [E 473, 2-(2,6-dioxopiperidin-3-yl)-6-((7-(5-((1R,3R)-2-(2-fluoro-2-methylpropyl)-3-methyl-2,3,4,9-tetrahydro-1H-pyrido[3,4-b]indol-1-yl)pyrimidin-2-yl)-7-azaspiro[3.5]nonan-2-yl)methyl)-6,7-dihydropyrrolo[3,4-f]isoindole-1,3(2H,5H)-dione]: 0.01 to 0.1 µM. Same read-out and setting: next, `COc1c2c(cc3c1CN(C1CCC(=O)NC1=O)C3=O)CN(CC(=O)N1CCC3(CC1)CCN(c1cc(F)c([C@@H]4c5ccc(O)cc5C[C@@H](C)N4CC(F)F)c(F)c1)CC3)C2` (stereo partly drawn) [E 461, 3-(6-(2-(9-(4-((1S,3R)-2-(2,2-difluoroethyl)-6-hydroxy-3-methyl-1,2,3,4-tetrahydroisoquinolin-1-yl)-3,5-difluorophenyl)-3,9-diazaspiro[5.5]undecan-3-yl)-2-oxoethyl)-4-methoxy-1-oxo-3,5,6,7-tetrahydropyrrolo[3,4-f]isoindol-2(1H)-yl)piperidine-2,6-dione]: below 0.01 µM.
